What follows are molecules tested on MOLT-4 (assay: Cell viability assay (tetrazolium-based MTS) in MOLT4 cells). Settings: Homo sapiens, MOLT-4, MOLT4 acute lymphoblastic leukemia cells, 48 h incubation.
Description: Cancer cells from acute lymphoblastic leukemia (MOLT4) were incubated with increasing concentrations of compounds of Examples 1-9 for 48 h. Cell viability was measured by tetrazolium-based MTS assay. 5×10^4 to 1×10^5 suspension cells or 3×10^3 to 5×10^3 adherent cells were seeded and treated in 96-well plates for 48 h. The EC50 values of individual agents were calculated with GraphPad Prism.

SMILES	EC50 [nM]
Cc1ncsc1-c1ccc([C@H](CC(=O)NCCNC(=O)c2nc(N3CCc4cccc(C(=O)Nc5nc6ccccc6s5)c4C3)ccc2-c2cnn(CC34CC5CC(CC(C5)C3)C4)c2C)NC(=O)[C@@H]2C[C@@H](O)CN2C(=O)[C@@H](NC(=O)C2(C#N)CC2)C(C)(C)C)cc1 [degrader #20, 2-(5-(1-(adamantan-1-ylmethyl)-5-methyl-1H-pyrazol-4-yl)-6-((2-((S)-3-((2S,4R)-1-((S)-2-(1-cyanocyclopropane-1-carboxamido)-3,3-dimethylbutanoyl)-4-hydroxypyrrolidine-2-carboxamido)-3-(4-(4-methylthiazol-5-yl)phenyl)propanamido)ethyl)carbamoyl)pyridin-2-yl)-N-(benzo[d]thiazol-2-yl)-1,2,3,4-tetrahydroisoquinoline-8-carboxamide]	10 to 100
Cc1ncsc1-c1ccc([C@H](CC(=O)NCCCNC(=O)c2nc(N3CCc4cccc(C(=O)Nc5nc6ccccc6s5)c4C3)ccc2-c2cnn(CC34CC5CC(CC(C5)C3)C4)c2C)NC(=O)[C@@H]2C[C@@H](O)CN2C(=O)[C@@H](NC(=O)C2(C#N)CC2)C(C)(C)C)cc1 [degrader #21, 2-(5-(1-(adamantan-1-ylmethyl)-5-methyl-1H-pyrazol-4-yl)-6-((3-((S)-3-((2S,4R)-1-((S)-2-(1-cyanocyclopropane-1-carboxamido)-3,3-dimethylbutanoyl)-4-hydroxypyrrolidine-2-carboxamido)-3-(4-(4-methylthiazol-5-yl)phenyl)propanamido)propyl)carbamoyl)pyridin-2-yl)-N-(benzo[d]thiazol-2-yl)-1,2,3,4-tetrahydroisoquinoline-8-carboxamide]	100 to 1000
Cc1ncsc1-c1ccc([C@H](CC(=O)NCCCCNC(=O)c2nc(N3CCc4cccc(C(=O)Nc5nc6ccccc6s5)c4C3)ccc2-c2cnn(CC34CC5CC(CC(C5)C3)C4)c2C)NC(=O)[C@@H]2C[C@@H](O)CN2C(=O)[C@@H](NC(=O)C2(C#N)CC2)C(C)(C)C)cc1 [degrader #22, 2-(5-(1-(adamantan-1-ylmethyl)-5-methyl-1H-pyrazol-4-yl)-6-((4-((S)-3-((2S,4R)-1-((S)-2-(1-cyanocyclopropane-1-carboxamido)-3,3-dimethylbutanoyl)-4-hydroxypyrrolidine-2-carboxamido)-3-(4-(4-methylthiazol-5-yl)phenyl)propanamido)butyl)carbamoyl)pyridin-2-yl)-N-(benzo[d]thiazol-2-yl)-1,2,3,4-tetrahydroisoquinoline-8-carboxamide]	10 to 100
Cc1ncsc1-c1ccc([C@H](CC(=O)NCCCCCNC(=O)c2nc(N3CCc4cccc(C(=O)Nc5nc6ccccc6s5)c4C3)ccc2-c2cnn(CC34CC5CC(CC(C5)C3)C4)c2C)NC(=O)[C@@H]2C[C@@H](O)CN2C(=O)[C@@H](NC(=O)C2(C#N)CC2)C(C)(C)C)cc1 [degrader #23, 2-(5-(1-(adamantan-1-ylmethyl)-5-methyl-1H-pyrazol-4-yl)-6-((5-((S)-3-((2S,4R)-1-((S)-2-(1-cyanocyclopropane-1-carboxamido)-3,3-dimethylbutanoyl)-4-hydroxypyrrolidine-2-carboxamido)-3-(4-(4-methylthiazol-5-yl)phenyl)propanamido)pentyl)carbamoyl)pyridin-2-yl)-N-(benzo[d]thiazol-2-yl)-1,2,3,4-tetrahydroisoquinoline-8-carboxamide]	10 to 100

The next lines start with the values.

EC50 [nM]	SMILES
10 to 100	Cc1ncsc1-c1ccc([C@H](C)NC(=O)[C@@H]2C[C@@H](O)CN2C(=O)[C@@H](NC(=O)CCCCCCCCCS(=O)(=O)NC(=O)c2nc(N3CCc4cccc(C(=O)Nc5nc6ccccc6s5)c4C3)ccc2-c2cnn(CC34CC5CC(CC(C5)C3)C4)c2C)C(C)(C)C)cc1 [degrader #15, 2-(5-(1-(adamantan-1-ylmethyl)-5-methyl-1H-pyrazol-4-yl)-6-(((10-(((S)-1-((2S,4R)-4-hydroxy-2-(((S)-1-(4-(4-methylthiazol-5-yl)phenyl)ethyl)carbamoyl)pyrrolidin-1-yl)-3,3-dimethyl-1-oxobutan-2-yl)amino)-10-oxodecyl)sulfonyl)carbamoyl)pyridin-2-yl)-N-(benzo[d]thiazol-2-yl)-1,2,3,4-tetrahydroisoquinoline-8-carboxamide]
10 to 100	Cc1ncsc1-c1ccc([C@H](C)NC(=O)[C@@H]2C[C@@H](O)CN2C(=O)[C@@H](NC(=O)CCCCCCCCCCS(=O)(=O)NC(=O)c2nc(N3CCc4cccc(C(=O)Nc5nc6ccccc6s5)c4C3)ccc2-c2cnn(CC34CC5CC(CC(C5)C3)C4)c2C)C(C)(C)C)cc1 [degrader #16, 2-(5-(1-(adamantan-1-ylmethyl)-5-methyl-1H-pyrazol-4-yl)-6-(((11-(((S)-1-((2S,4R)-4-hydroxy-2-(((S)-1-(4-(4-methylthiazol-5-yl)phenyl)ethyl)carbamoyl)pyrrolidin-1-yl)-3,3-dimethyl-1-oxobutan-2-yl)amino)-11-oxoundecyl)sulfonyl)carbamoyl)pyridin-2-yl)-N-(benzo[d]thiazol-2-yl)-1,2,3,4-tetrahydroisoquinoline-8-carboxamide]
10 to 100	Cc1ncsc1-c1ccc([C@H](C)NC(=O)[C@@H]2C[C@@H](O)CN2C(=O)[C@@H](NC(=O)CCCCCCCS(=O)(=O)NC(=O)c2nc(N3CCc4cccc(C(=O)Nc5nc6ccccc6s5)c4C3)ccc2-c2cc(C#N)n(CC34CC5CC(CC(C5)C3)C4)c2C)C(C)(C)C)cc1 [degrader #18, 2-(5-(1-(adamantan-1-ylmethyl)-5-cyano-2-methyl-1H-pyrrol-3-yl)-6-(((8-(((S)-1-((2S,4R)-4-hydroxy-2-(((S)-1-(4-(4-methylthiazol-5-yl)phenyl)ethyl)carbamoyl)pyrrolidin-1-yl)-3,3-dimethyl-1-oxobutan-2-yl)amino)-8-oxooctyl)sulfonyl)carbamoyl)pyridin-2-yl)-N-(benzo[d]thiazol-2-yl)-1,2,3,4-tetrahydroisoquinoline-8-carboxamide]
10 to 100	Cc1ncsc1-c1ccc([C@H](C)NC(=O)[C@@H]2C[C@@H](O)CN2C(=O)[C@@H](NC(=O)CCCCCCCNC(=O)c2nc(N3CCc4cccc(C(=O)Nc5nc6ccccc6s5)c4C3)ccc2-c2cnn(CC34CC5CC(CC(C5)C3)C4)c2C)C(C)(C)C)cc1 [degrader #19, 2-(5-(1-(adamantan-1-ylmethyl)-5-methyl-1H-pyrazol-4-yl)-6-((8-(((S)-1-((2S,4R)-4-hydroxy-2-(((S)-1-(4-(4-methylthiazol-5-yl)phenyl)ethyl)carbamoyl)pyrrolidin-1-yl)-3,3-dimethyl-1-oxobutan-2-yl)amino)-8-oxooctyl)carbamoyl)pyridin-2-yl)-N-(benzo[d]thiazol-2-yl)-1,2,3,4-tetrahydroisoquinoline-8-carboxamide]

Same assay, conditions: MOLT4 acute lymphoblastic leukemia cells, 48 h incubation

EC50 [nM]	SMILES
10 to 100	Cc1ncsc1-c1ccc([C@H](C)NC(=O)[C@@H]2C[C@@H](O)CN2C(=O)[C@@H](NC(=O)CCCCCCCCCCCS(=O)(=O)NC(=O)c2nc(N3CCc4cccc(C(=O)Nc5nc6ccccc6s5)c4C3)ccc2-c2cnn(CC34CC5CC(CC(C5)C3)C4)c2C)C(C)(C)C)cc1 [degrader #17, 2-(5-(1-(adamantan-1-ylymethyl)-5-methyl-1H-pyrazol-4-yl)-6-(((12-(((S)-1-((2S,4R)-4-hydroxy-2-(((S)-1-(4-(4-methylthiazol-5-yl)phenyl)ethyl)carbamoyl)pyrrolidin-1-yl)-3,3-dimethyl-1-oxobutan-2-yl)amino)-12-oxododecyl)sulfonyl)carbamoyl)pyridin-2-yl)-N-(benzo[d]thiazol-2-yl)-1,2,3,4-tetrahydroisoquinoline-8-carboxamide]

From patent US12441722B2, “Therapeutic agents and methods of treatment” (University of Florida Research Foundation, Incorporated, priority 2020, dated 2025)
